In PubChem BioAssay (NCI):
“And” between values parts separate entries of the source, which are not always exact repeats. Equal entries are not always repeated.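 48-hour exposure; five concentrations; linearly interpolated endpoints. GI50: concentration for 50% inhibition of growth. TGI marks complete inhibition of growth.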

Legend:
Assay in all cases: DTP human tumour cell line panel, 48 h
KM12 colon = system: KM12 colon
ACHN renal = system: ACHN renal
OVCAR-3 ovarian = system: OVCAR-3 ovarian
SNB-75 CNS = system: SNB-75 CNS
MOLT-4 leukemia = system: MOLT-4 leukemia
HL-60(TB) leukemia = system: HL-60(TB) leukemia
SK-OV-3 ovarian = system: SK-OV-3 ovarian
SF-539 CNS = system: SF-539 CNS
SN12C renal = system: SN12C renal
LOX IMVI melanoma = system: LOX IMVI melanoma

Row | Compound | GI50 (KM12 colon) [µM] | TGI (KM12 colon) [µM] | GI50 (ACHN renal) | TGI (ACHN renal) [µM] | GI50 (OVCAR-3 ovarian) | TGI (OVCAR-3 ovarian) | GI50 (SNB-75 CNS) | TGI (SNB-75 CNS) [µM] | GI50 (MOLT-4 leukemia) | TGI (MOLT-4 leukemia) | GI50 (HL-60(TB) leukemia) | TGI (HL-60(TB) leukemia) | GI50 (SK-OV-3 ovarian) [µM] | TGI (SK-OV-3 ovarian) [µM] | GI50 (SF-539 CNS) | TGI (SF-539 CNS) | GI50 (SN12C renal) | TGI (SN12C renal) | GI50 (LOX IMVI melanoma) | TGI (LOX IMVI melanoma)
1 | CN(C)CCNC(=O)c1cc2c3ccccc3[nH]c2c2ncccc12 | 12.8 | 77.4 | 4.24 µM | 28 | 0.0254 µM | 16.8 µM | 5.44 µM | 21.4 | 3.46 µM | 16.5 µM | 10.2 µM | 30 µM | 23.5 | > 100 | 8.87 µM | 21.1 µM | 7.36 µM | 39.2 µM | 4.14 µM | 17.5 µM
2 | CN1CCn2c(c(Sc3ccc(C(=O)NO)cc3)c3ccccc32)C1=O | 1.85 | 3.92 | 2.63 µM | 8.72 | 1.87 µM | 4.33 µM | 1.27 µM | 2.99 | 2.87 µM | > 33.8 µM | 3.16 µM | 32 µM | 2.11 | 4.8 | 1.56 µM | 3.48 µM | 2.13 µM | 5.58 µM | 1.78 µM | 3.66 µM
3 | C/C(=C\CC[C@]1(C)OC(C)(C)OC1CC/C(C)=C/CO[Si](c1ccccc1)(c1ccccc1)C(C)(C)C)CC/C=C/CO[Si](C)(C)C(C)(C)C (stereo not given in full) | – | > 100 | – | > 100 | – | > 100 µM | – | > 100 | – | > 100 µM | – | > 100 µM | – | > 100 | – | > 100 µM | – | > 100 µM | – | > 100 µM
4 | Cc1ccc(S(=O)(=O)Nc2nc3ccccc3nc2Nc2ccc3nsnc3c2)cc1 | 4.3 | > 100 | 4.01 µM and 3.75 µM | > 100 | 3.23 µM and 3.65 µM | 14.8 µM and > 100 µM | 8.81 µM and 3.89 µM | > 100 | 4.3 µM and 3.61 µM | 34.9 µM and > 100 µM | 2.96 µM and 2.86 µM | 14 µM and > 30 µM | 4.76 | > 100 | 4.9 µM and 5.13 µM | 61.3 µM and > 100 µM | 3.1 µM and 3.04 µM | 46.8 µM and > 100 µM | 3.67 µM and 3.89 µM | 36.1 µM and > 100 µM
5 | COc1ccc2c(c1)OC(N)=C(C#N)C2c1ccc(F)cc1 (stereo not given) | 0.656 | 25.8 | 6.35 µM | > 100 | 0.829 µM | 14.2 µM | 1.4 µM | 13.3 | 1.32 µM | > 100 µM | 0.45 µM | 7.15 µM | 2.94 | 66.3 | 1.64 µM | 6.58 µM | 6.82 µM | > 100 µM | 1.98 µM | > 100 µM
6 | OCCNCCNc1c2ccccc2nc2oc3ccccc3c12 | 8.31 | > 100 | 5.82 µM | 32.7 | 12.5 µM | 42.8 µM | 13.2 µM | 27.1 | 4.78 µM | > 100 µM | 12.4 µM | 50.5 µM | 13.1 | 40.3 | 8.04 µM | 21 µM | 8.86 µM | 57.7 µM | 5.87 µM | 20.6 µM
7 | Oc1ccc(N=Nc2ccc(N=Nc3ccccc3)cc2)cc1 | 2.98 | 16.6 | 1.49 µM | 5.59 | 1.71 µM | 4.77 µM | 9.84 µM | 47.8 | 0.351 µM | 11.9 µM | 0.366 µM | 16.1 µM | 3.29 | 7.87 | 0.712 µM | 3.03 µM | 3.95 µM | 17.2 µM | 0.285 µM | 1.76 µM
8 | CCCN(CCC)C(=O)[C@H](CC)[C@@H]1CC[C@@H](C)[C@@H]([C@H](C)[C@@H](O)[C@@H](C)C(=O)[C@H](CC)C2O[C@]3(C=C[C@@H](O)[C@]4(CC[C@@](C)([C@H]5CC[C@](O)(CC)[C@H](C)O5)O4)O3)[C@H](C)C[C@@H]2C)O1 (stereo not given in full) | 1.86 | 4.02 | 3.18 µM | 10.3 | 1.84 µM | 4.46 µM | 1.73 µM | 14.4 | 2.39 µM | 6.41 µM | 2.26 µM | 5.54 µM | 3.29 | 19.9 | 2.06 µM | 4.2 µM | 2.13 µM | 6.1 µM | 1.5 µM | 3 µM
